Test results from PubChem BioAssay (NCI).
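The compound was tested at five concentrations on cells cultured in 96-well plates, with a 48-hour exposure period. Definition used: TGI = concentration required for complete inhibition of growth.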

Tests used:
Assay in all cases: NCI anticancer screen, dose series, 48 h
OVCAR-3 ovarian = system: OVCAR-3 ovarian
COLO 205 colon = system: COLO 205 colon
MDA-N = system: MDA-N
CAKI-1 renal = system: CAKI-1 renal
SF-539 CNS = system: SF-539 CNS
SN12C renal = system: SN12C renal
NCI/ADR-RES ovarian = system: NCI/ADR-RES ovarian
SK-MEL-28 melanoma = system: SK-MEL-28 melanoma
SF-295 CNS = system: SF-295 CNS
HOP-92 NSCLC = system: HOP-92 NSCLC
HOP-62 NSCLC = system: HOP-62 NSCLC
OVCAR-4 ovarian = system: OVCAR-4 ovarian
A498 renal = system: A498 renal
SK-MEL-5 melanoma = system: SK-MEL-5 melanoma
HCT-116 colon = system: HCT-116 colon
RPMI-8226 leukemia = system: RPMI-8226 leukemia
NCI-H226 lung = system: NCI-H226 lung
EKVX NSCLC = system: EKVX NSCLC
MDA-MB-231 breast = system: MDA-MB-231 breast
U251 CNS = system: U251 CNS
HCC-2998 colon = system: HCC-2998 colon
MOLT-4 leukemia = system: MOLT-4 leukemia
MALME-3M melanoma = system: MALME-3M melanoma
786-0 renal = system: 786-0 renal
UO-31 renal = system: UO-31 renal
UACC-257 melanoma = system: UACC-257 melanoma
NCI-H460 lung = system: NCI-H460 lung
ACHN renal = system: ACHN renal
MCF7 breast = system: MCF7 breast
CCRF-CEM leukemia = system: CCRF-CEM leukemia
NCI-H522 lung = system: NCI-H522 lung
OVCAR-5 ovarian = system: OVCAR-5 ovarian
KM12 colon = system: KM12 colon
OVCAR-8 ovarian = system: OVCAR-8 ovarian
PC-3 prostate = system: PC-3 prostate
RXF 393 renal = system: RXF 393 renal
MDA-MB-435 = system: MDA-MB-435
SW-620 colon = system: SW-620 colon
SNB-19 CNS = system: SNB-19 CNS
SK-MEL-2 melanoma = system: SK-MEL-2 melanoma
SNB-75 CNS = system: SNB-75 CNS
NCI-H23 lung = system: NCI-H23 lung
TK-10 renal = system: TK-10 renal
HL-60(TB) leukemia = system: HL-60(TB) leukemia
M14 melanoma = system: M14 melanoma
SK-OV-3 ovarian = system: SK-OV-3 ovarian
T-47D breast = system: T-47D breast
BT-549 breast = system: BT-549 breast
HT29 colon = system: HT29 colon
IGROV1 ovarian = system: IGROV1 ovarian
SF-268 CNS = system: SF-268 CNS
LOX IMVI melanoma = system: LOX IMVI melanoma
UACC-62 melanoma = system: UACC-62 melanoma
HS 578T breast = system: HS 578T breast
DU-145 prostate = system: DU-145 prostate
HCT-15 colon = system: HCT-15 colon
A549 NSCLC = system: A549 NSCLC
K-562 leukemia = system: K-562 leukemia

Measured: TGI

c1ccc2c(c1)Oc1cccc3cccc-2c13
> 100 µM: OVCAR-3 ovarian | COLO 205 colon | MDA-N | CAKI-1 renal | SF-539 CNS | SN12C renal | NCI/ADR-RES ovarian | SK-MEL-28 melanoma | SF-295 CNS | HOP-92 NSCLC | HOP-62 NSCLC | OVCAR-4 ovarian | A498 renal | SK-MEL-5 melanoma | HCT-116 colon | RPMI-8226 leukemia | NCI-H226 lung | EKVX NSCLC | MDA-MB-231 breast | U251 CNS | HCC-2998 colon | MOLT-4 leukemia | MALME-3M melanoma | 786-0 renal | UO-31 renal | UACC-257 melanoma | NCI-H460 lung | ACHN renal | MCF7 breast | CCRF-CEM leukemia | NCI-H522 lung | OVCAR-5 ovarian | KM12 colon | OVCAR-8 ovarian | PC-3 prostate | RXF 393 renal | MDA-MB-435 | SW-620 colon | SNB-19 CNS | SK-MEL-2 melanoma | SNB-75 CNS | NCI-H23 lung | TK-10 renal | HL-60(TB) leukemia | M14 melanoma | SK-OV-3 ovarian | T-47D breast | BT-549 breast | HT29 colon | IGROV1 ovarian | SF-268 CNS | LOX IMVI melanoma | UACC-62 melanoma | HS 578T breast | DU-145 prostate | HCT-15 colon | A549 NSCLC | K-562 leukemia
